Consider 3 compounds from ChEMBL document CHEMBL5291721, “A preclinical secondary pharmacology resource illuminates target-adverse drug reaction associations of marketed drugs” (Nat Commun, 2023).

The target of one experiment is T1, Estrogen receptor (Homo sapiens, UniProt P03372).
T1 sequence (P03372 whole entry): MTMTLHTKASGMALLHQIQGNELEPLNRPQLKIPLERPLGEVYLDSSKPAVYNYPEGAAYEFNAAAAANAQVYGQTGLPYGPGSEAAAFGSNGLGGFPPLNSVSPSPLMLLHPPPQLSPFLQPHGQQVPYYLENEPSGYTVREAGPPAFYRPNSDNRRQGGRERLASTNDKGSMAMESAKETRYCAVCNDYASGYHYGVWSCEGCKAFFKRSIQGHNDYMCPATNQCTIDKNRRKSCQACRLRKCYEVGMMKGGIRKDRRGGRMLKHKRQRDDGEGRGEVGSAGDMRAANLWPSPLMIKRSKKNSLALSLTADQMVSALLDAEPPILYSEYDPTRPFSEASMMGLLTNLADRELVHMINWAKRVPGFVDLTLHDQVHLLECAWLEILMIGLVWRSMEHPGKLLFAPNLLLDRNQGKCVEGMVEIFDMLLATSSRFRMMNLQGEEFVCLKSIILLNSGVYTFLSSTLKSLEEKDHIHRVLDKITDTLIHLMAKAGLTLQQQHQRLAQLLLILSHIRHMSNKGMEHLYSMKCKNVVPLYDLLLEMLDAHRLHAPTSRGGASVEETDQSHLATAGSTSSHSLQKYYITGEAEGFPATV
In kind it is functional.

Experiment [1] addresses T2, Peroxisome proliferator-activated receptor alpha (Homo sapiens, UniProt Q07869).
T2 sequence (Q07869 whole entry): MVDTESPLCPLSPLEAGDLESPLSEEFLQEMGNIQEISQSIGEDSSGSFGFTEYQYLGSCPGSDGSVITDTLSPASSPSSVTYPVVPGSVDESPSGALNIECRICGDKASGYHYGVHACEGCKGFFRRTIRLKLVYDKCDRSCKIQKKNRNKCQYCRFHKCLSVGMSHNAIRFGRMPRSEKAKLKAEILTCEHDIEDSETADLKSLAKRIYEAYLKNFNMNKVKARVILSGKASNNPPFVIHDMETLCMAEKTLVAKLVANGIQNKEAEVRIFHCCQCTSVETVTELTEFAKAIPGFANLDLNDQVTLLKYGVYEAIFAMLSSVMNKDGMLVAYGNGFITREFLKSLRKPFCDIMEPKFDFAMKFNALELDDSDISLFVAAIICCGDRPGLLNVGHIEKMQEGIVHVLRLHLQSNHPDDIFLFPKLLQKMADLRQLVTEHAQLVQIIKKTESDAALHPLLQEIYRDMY
In kind it is functional.

Experiment [2] addresses T2, Peroxisome proliferator-activated receptor alpha. In kind it is functional. This is another data set of the same source.
For experiment [3], the target named is T3, Muscarinic acetylcholine receptor M2 (Homo sapiens, UniProt P08172).
T3 sequence (P08172 whole entry): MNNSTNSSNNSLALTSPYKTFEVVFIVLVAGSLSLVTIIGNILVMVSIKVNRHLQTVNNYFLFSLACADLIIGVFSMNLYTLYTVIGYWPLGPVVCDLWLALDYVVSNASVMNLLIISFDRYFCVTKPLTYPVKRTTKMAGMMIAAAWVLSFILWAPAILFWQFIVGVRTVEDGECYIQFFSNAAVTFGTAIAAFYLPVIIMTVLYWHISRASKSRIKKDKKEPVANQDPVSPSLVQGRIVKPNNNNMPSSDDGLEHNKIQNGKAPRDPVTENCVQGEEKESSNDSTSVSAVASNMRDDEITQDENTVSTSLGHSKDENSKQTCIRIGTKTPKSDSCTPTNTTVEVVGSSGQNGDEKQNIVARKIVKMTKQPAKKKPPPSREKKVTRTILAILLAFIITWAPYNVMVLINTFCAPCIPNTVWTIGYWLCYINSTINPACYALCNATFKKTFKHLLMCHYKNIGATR
Also: assay procedure not described here.

As to `COc1cccc2c1C(=O)c1c(O)c3c(c(O)c1C2=O)C[C@@](O)(C(=O)CO)C[C@@H]3O[C@H]1C[C@H](N)[C@H](O)[C@H](C)O1` [DOXORUBICIN], on Estrogen receptor, the AC50 was over 10 µM.

With `CC(C)(Oc1ccc(Cl)cc1)C(=O)OCCOC(=O)c1cccnc1` [ETOFIBRATE], the concentration at half-maximal activity (AC50) in experiment [1] and in experiment [2] was over 30 µM throughout. In experiment [3], `CN1CCCC(CC2c3ccccc3Sc3ccccc32)C1` (centres undefined) [METHIXENE] yielded a half-maximal activity concentration (AC50) of 0.0053 µM.
